Experimental findings from patent US9682993B2, “Anticancer compounds” (ST. JUDE CHILDREN'S RESEARCH HOSPITAL, priority 2012, dated 2017) are described below.

Data set [1] relates to MDM2 alternative splicing in Rh18 cells. Nature of the data set: In vitro alternative splicing assay (MDM2, RT-PCR). In kind it is cell-based. The note with it: Rh18, 8 h, PCR (FIG. 9).
Another data set has as its system HeLa. Nature of the data set: Drug combination assay, HeLa. In kind it is cell-based. Particulars: HeLa cells; combined with AUDA (15 μM). As for the experimental part: Preliminary cytotoxic screenings for each drug used in drug combination assays were performed to determine their cytotoxic dose range. […] Eight concentrations were established by 1:3 serial dilutions of the single drugs and their combinations with the splicing modulators. All drug concentrations were evaluated in triplicate in 96-well cell culture plates. Assays of individual drugs and drug combinations were run on the same tissue culture plate. Cell viability was determined using the CellTiter-Glo reagent. Drug interactions, in terms of synergism, additive effect, or antagonism, were based on the drugs' Combination Index (CI) (Chou et al., Adv. Enzyme Regul. 1984, 22, 27).
Luminescence data obtained from the cell viability determinations were formatted per the requirements of the analytical software (viability data range: >0 and <1). The formatted data were analyzed with the software CalcuSyn 2.1 (Biosoft, Cambridge, UK), which provides quantitative CI values for the drug interaction analyses (see ranges in Supplementary Table S2). […] Therefore, in these two cases the drug interaction was evaluated by comparing the IC50 value of Sudemycin with that of the IC50 values resulting from the serial dilutions of the splicing modulator combined with a constant dose of the non-toxic drug.

The test system of another data set is cell lines investigated. Nature of the data set: Drug combination assays, cell line not stated. In kind it is cell-based. Particulars: all cell lines investigated.
The nature of data set [2]: Maximum tolerated dose study (weight loss). In kind it is in vivo, C.B-17 scid mice. Particulars: 50 mg/kg four hour infusion daily for five days; day 5 of infusion. The method, then:
Xenograft tumors were first established from an SK-MEL-2 cell culture at the St. Jude Children's Research Hospital Xenograft Core. After these tumors were established as a mouse xenograft model, they were routinely maintained in the C.B-17 scid strain (Taconic Farms, Germantown, N.Y.). Experimental animals were prepared by transplanting small pieces of dissected tumors from donor animals into recipient mice. All animal studies were performed in accordance with the St. Jude Children's Research Hospital Animal Care and Use Committee. SK-MEL-2 xenograft tumors were transplanted into male C.B-17 scid mice on Day −21. On Days −7 to −5, a jugular vein catheter was surgically implanted into each mouse. […] Tumors were continuously measured during and after infusion periods, 5 times per week (weekdays). Tumor volumes were determined based on the following equation: Tuvol=(δ1/2+δ2/2)^1.5708, where δ1 and δ2 are diameters measured with a caliper at right angles of each other. […]
The in vivo effects, e.g. weight loss, of compound 20 were evaluated in mice using the methods described herein above. […] Weight of the test animals was determined daily (5 weight measurements/week). […]

In data set [3] the test system is SK-MEL-2 xenograft tumors. Nature of the data set: In vivo tumor xenograft study. The arrangement: species or system C.B-17 scid mice. The method, then:
Xenograft tumors were first established from an SK-MEL-2 cell culture at the St. Jude Children's Research Hospital Xenograft Core. After these tumors were established as a mouse xenograft model, they were routinely maintained in the C.B-17 scid strain (Taconic Farms, Germantown, N.Y.). Experimental animals were prepared by transplanting small pieces of dissected tumors from donor animals into recipient mice. All animal studies were performed in accordance with the St. Jude Children's Research Hospital Animal Care and Use Committee. SK-MEL-2 xenograft tumors were transplanted into male C.B-17 scid mice on Day −21. On Days −7 to −5, a jugular vein catheter was surgically implanted into each mouse. […] Infusions were carried out by placing the animals inside a continuous infusion system (Instech Laboratories, Plymouth Meeting, Pa.), and delivering the vehicle or drug solution via the jugular catheter at a rate of 4 μL/min with a SP230iw syringe pump (WPI, Sarasota, Fla.). […] Tumors were continuously measured during and after infusion periods, 5 times per week (weekdays). Tumor volumes were determined based on the following equation: Tuvol=(δ1/2+δ2/2)^1.5708, where δ1 and δ2 are diameters measured with a caliper at right angles of each other. The size of the tumors ranged from 0.2 to 0.5 cm^3 at the times the infusions were initiated.
The efficacy of compound 20 in the inhibition of tumor growth in mice was evaluated using the methods as described herein above. Thus, SK-MEL-2 tumors were transplanted into male C.B-17 scid mice. The animals were subsequently infused over 4 h with either vehicle (8 mice) or compound 20 (9 mice) for 5 consecutive days.

The mark [4] stands for this setting: 50 mg/kg over 4 h, once a day for 5 days.

For `CNC(=O)O[C@@H](C)/C=C\C(=O)N[C@H]1CC[C@@H](C/C=C(C)/C=C/[C@@H]2C[C@]3(CO3)CC(C)(C)O2)CC1` [compound 20, (S,Z)-5-(((1R,4R)-4-((2E,4E)-5-((3R,5S)-7,7-Methyl-1,6-Dioxaspiro[2.5]Octan-5-Yl)-3-Methylpenta-2,4-Dien-1-Yl)Cyclohexyl)Amino)-5-Oxopent-3-En-2-Yl Methylcarbamate], the “alternative MDM2 splicing” value in data set [1] was “induction of alternative MDM2 splicing”. In the data set with HeLa, the “effect of soluble epoxide hydrolase inhibition on IC50” value is “improves the IC50”. Further, the “synergy with PI3K/mTOR inhibition” value in the data set with cell lines investigated is given as “synergy is also seen”. Also, the average weight loss in data set [2] was determined as 12.7%. For the same molecule, in data set [3] (setting [4]), the “inhibition of tumor growth during the infusion period” value turned out to be 100% and the “inhibition of tumor growth subsequent to the dosing period” value is “significant inhibition”. In addition, the “fatalities or behavioral changes versus control infusion” value in data set [3] (infusion over 4 h for 5 consecutive days) is listed as “No differences in fatalities or behavioral changes”.
